Some test systems named below: K562; SW-620; SF-268; OVCAR-5; SNB-19; SK-OV-3; SF-295; HT-29; M14; SN12C; U-251; CCRF-CEM; NCI-H460; ACHN; OVCAR-4; Malme-3M; A498; NCI-H522; CAKI-1; SF-539.
Holding throughout (assay): NCI tumour cell line growth inhibition, 48 h

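Compound exposure: 48 hours, 5 concentrations, 96-well plates. GI50 marks 50% less growth.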 Calls of active or inactive are those of the source. No stated cut-off is given here; in the data, active = GI50 up to about 1.1 µM and inactive = higher. Where only a bound is given, the exact number is not on record here.

The source of these data is ChEMBL document CHEMBL1201862, “PubChem BioAssay data set” (2004).

As for `CS/C(=N\S(=O)(=O)c1ccc(Cl)cc1)NCCN/C(=N/S(=O)(=O)c1ccc(Cl)cc1)SC`, the GI50 in the assay on K562 was > 100000 nM (inactive); in the assay on SW-620, > 100000 nM (inactive); with SF-268, 21300 nM (inactive); with OVCAR-5, > 100000 nM (inactive); in the assay on SNB-19 it was 35700 nM (inactive); in the assay on SK-OV-3, 23600 nM (inactive). The GI50 in the assay on SF-295 was 61200 nM (inactive); with HT-29 it was > 100000 nM (inactive); with M14, > 100000 nM (inactive); with SN12C it was > 100000 nM (inactive); in the assay on U-251, 18000 nM (inactive); with CCRF-CEM it was > 100000 nM (inactive). Moreover, the GI50 with NCI-H460 was > 100000 nM (inactive); with ACHN it was > 100000 nM (inactive); in the assay with OVCAR-4, 2300 nM (inactive); in the assay on Malme-3M, 49800 nM (inactive); in the assay with A498, 37500 nM (inactive); in the assay on NCI-H522, 2580 nM (inactive). The GI50 with CAKI-1 is > 100000 nM (inactive); with SF-539 it was 61400 nM (inactive).

For `O=C1C[C@H](Sc2ccccc2)C2(OCCO2)[C@H]2ON3CCC[C@@H]3[C@@H]12`, the GI50 in the assay on K562 was 1710 nM (inactive); with SW-620, 723 nM (active); in the assay on SF-268 it was 1650 nM (inactive); in the assay on OVCAR-5, 3010 nM (inactive); in the assay on SNB-19 it was 5180 nM (inactive); in the assay with SK-OV-3 it was 3130 nM (inactive). For the same compound, the GI50 in the assay on SF-295 was 3790 nM (inactive); in the assay on HT-29, 759 nM (active); in the assay on M14, 2260 nM (inactive); in the assay with SN12C, 1690 nM (inactive); in the assay with U-251 it was 1880 nM (inactive); with CCRF-CEM, 127 nM (active). Moreover, the GI50 is 2920 nM (inactive) in the assay on NCI-H460; 2100 nM (inactive) in the assay with ACHN; 2570 nM (inactive) in the assay on OVCAR-4; 1730 nM (inactive) in the assay with Malme-3M; 13200 nM (inactive) in the assay with A498; 321 nM (active) in the assay with NCI-H522. Besides, the GI50 was 2290 nM (inactive) in the assay on CAKI-1 and 1200 nM (inactive) in the assay on SF-539.

As for `C#C[C@]1(O)[C@@H](CO)O[C@@H](n2ccc(=O)[nH]c2=O)[C@@H]1O`, the GI50 in the assay on K562 was < 14.6 nM (active); with SW-620, 82 nM (active); with SF-268, 116 nM (active); with OVCAR-5 it was 406 nM (active); with SNB-19, 1030 nM (active); in the assay with SK-OV-3, 1970 nM (inactive). Moreover, the GI50 with SF-295 is 191 nM (active); in the assay with HT-29 it was 17.1 nM (active); with M14 it was 237 nM (active); with SN12C, < 18.4 nM (active); in the assay on U-251 it was 121 nM (active); with CCRF-CEM, 190 nM (active). Besides, the GI50 with NCI-H460 is < 10 nM (active); in the assay on ACHN, 27.2 nM (active); with OVCAR-4 it was 430 nM (active); in the assay on Malme-3M, 288 nM (active); in the assay with A498 it was 724 nM (active); in the assay with NCI-H522, 21.4 nM (active). For the same compound, the GI50 in the assay with CAKI-1 was < 16.1 nM (active); in the assay on SF-539, 11.7 nM (active).

On to `CCCSc1ccc2[nH]c(N3C(=O)/C(=C/c4cc(OC)c(OC)c(OC)c4)N=C3c3ccccc3)cc2c1`, for which the GI50 in the assay on K562 was 8430 nM (inactive); in the assay with SW-620 it was 10900 nM (inactive); in the assay on SF-268, 11000 nM (inactive); in the assay with OVCAR-5, 17700 nM (inactive); in the assay on SNB-19 it was 681 nM (active); with SK-OV-3, 1600 nM (inactive). For the same compound, the GI50 is 1250 nM (inactive) with SF-295; 7820 nM (inactive) with HT-29; 10400 nM (inactive) in the assay with M14; 16400 nM (inactive) in the assay with SN12C; 17800 nM (inactive) in the assay on U-251; 7940 nM (inactive) in the assay with CCRF-CEM. Besides, the GI50 in the assay on NCI-H460 was 12500 nM (inactive); in the assay with ACHN, 23000 nM (inactive); with OVCAR-4, 14500 nM (inactive); in the assay with Malme-3M, 13900 nM (inactive); with A498 it was 871 nM (active); in the assay with NCI-H522, 8970 nM (inactive). Further, the values for the GI50 in the assay with CAKI-1 and in the assay with SF-539 were 11900 nM (inactive) and 1720 nM (inactive), respectively.
